Experimental data as given in ChEMBL document CHEMBL6177991, “Discovery of P11-2: A Potent First-in-Class MNK1-Targeting PROTAC Degrader for the Treatment of Cancer” (J Med Chem, 2025).
Activity calls are given as the source filed them. The calls are words filed in the database; no cut-off is given here.

Columns and labels:
MV4-11 [1] = experiment: Anti-proliferative activity against human MV4-11 cells measured after 72 hrs by CCK8 assay; details: MV4-11, 72 h
MOLM-13 = experiment: Anti-proliferative activity against human MOLM-13 cells measured after 72 hrs by CCK8 assay; details: MOLM-13, 72 h
MDA-MB-231 = experiment: Anti-proliferative activity against human MDA-MB-231 cells measured after 96 hrs by CCK8 assay; details: MDA-MB-231, 96 h
MM1.S = experiment: Anti-proliferative activity against human MM1.S cells measured after 120 hrs by CCK8 assay
[2] = biological target: MAP kinase-interacting serine/threonine-protein kinase 1 (Homo sapiens, UniProt Q9BUB5); experiment: Inhibition of recombinant MNK1 (unknown origin) using TATKSGSTTKNR peptide as substrate preincubated for 5 mins followed by ATP addition and measured after 40 mins by ADP-Glo kinase assay
MV4-11 [3] = experiment: Induction of MNK2 degradation in human MV4-11 cells at 300 to 1000 nM incubated for 24 hrs by immunoblot analysis; assay type: cell-based; details: dose 300-1000 nM
MV4-11 [4] = experiment: Induction of apoptosis in human MV4-11 cells assessed as viable cells at 300 nM incubated for 24 hrs by Annexin V-FITC/PI dual staining based flow cytometric analysis (reference value: 94.9 %); assay type: functional; details: read-out: Activity
MV4-11 [5] = experiment: Induction of apoptosis in human MV4-11 cells assessed as early apoptotic cells at 300 nM incubated for 24 hrs by Annexin V-FITC/PI dual staining based flow cytometric analysis (reference value: 3.42 %); assay type: functional
MV4-11 [6] = experiment: Induction of apoptosis in human MV4-11 cells assessed as late apoptotic cells at 300 nM incubated for 24 hrs by Annexin V-FITC/PI dual staining based flow cytometric analysis (reference value: 1.48 %); assay type: functional
MV4-11 [7] = experiment: Induction of apoptosis in human MV4-11 cells assessed as necrotic cells at 300 nM incubated for 24 hrs by Annexin V-FITC/PI dual staining based flow cytometric analysis (reference value: 0.16 %); assay type: functional
MV4-11 [8] = experiment: Antitumor activity against human MV4-11 cells xenografted in nude female NSG mouse assessed as tumor growth inhibition at 20 mg/kg, ip qd administrated for 16 days by caliper method relative to control; assay type: functional; details: MV4-11, 384 h, time 16 day, read-out: TGI
[9] = Toxicity in nude female NSG mouse xenografted with human MV4-11 cells assessed as change in body weight at 20 mg/kg, ip qd administrated for 16 days; assay type: organism-based; details: in vivo, 384 h, time 16 day

Chain of MAP kinase-interacting serine/threonine-protein kinase 1 (Q9BUB5 whole entry): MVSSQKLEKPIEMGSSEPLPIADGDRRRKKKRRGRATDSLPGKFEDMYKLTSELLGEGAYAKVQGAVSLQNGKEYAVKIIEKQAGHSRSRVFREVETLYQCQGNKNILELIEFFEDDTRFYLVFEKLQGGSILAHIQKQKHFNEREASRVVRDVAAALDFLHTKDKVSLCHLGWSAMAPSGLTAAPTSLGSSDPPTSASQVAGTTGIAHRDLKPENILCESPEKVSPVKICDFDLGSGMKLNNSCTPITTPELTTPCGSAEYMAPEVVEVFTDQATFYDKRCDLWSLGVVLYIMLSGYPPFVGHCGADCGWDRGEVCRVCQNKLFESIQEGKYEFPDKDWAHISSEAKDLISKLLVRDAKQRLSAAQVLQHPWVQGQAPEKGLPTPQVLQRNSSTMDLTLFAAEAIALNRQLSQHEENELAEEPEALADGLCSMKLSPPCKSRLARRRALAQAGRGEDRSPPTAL

| Structure (SMILES) | IC50 (MV4-11 [1]) | further results |
| --- | --- | --- |
| O=C1CCC(N2Cc3c(NC(=O)CCCCN4CCC(C(=O)Nc5ncc(-c6ccccc6)s5)CC4)cccc3C2=O)C(=O)N1 (stereo not drawn) | 3.36 µM |  |
| O=C(CC(=O)N1CCC(C(=O)Nc2ncc(-c3ccccc3)s2)CC1)NCCCCCCC(=O)Nc1cccc2c1CN(C1CCC(=O)NC1=O)C2=O (stereo not drawn) | 0.86 µM | IC50 (MOLM-13): 6.96 µM; IC50 (MDA-MB-231): 17.6 µM; IC50 (MM1.S): 1.91 µM |
| O=C1CCC(N2Cc3c(NC(=O)CCCOc4ccc(CCC(=O)N5CCC(C(=O)Nc6ncc(-c7ccccc7)s6)CC5)cc4)cccc3C2=O)C(=O)N1 (stereo not drawn) | 8.58 µM |  |
| O=C1CCC(N2Cc3c(NC(=O)CCCCOc4ccc(CCC(=O)N5CCC(C(=O)Nc6ncc(-c7ccccc7)s6)CC5)cc4)cccc3C2=O)C(=O)N1 (stereo not drawn) | 9.89 µM |  |
| O=C1CCC(N2Cc3c(NC(=O)CCc4ccc(OCCCC(=O)N5CCC(C(=O)Nc6ncc(-c7ccccc7)s6)CC5)cc4)cccc3C2=O)C(=O)N1 (stereo not drawn) | > 10 µM |  |
| CN1CCC(C(=O)Nc2ncc(-c3ccccc3)s2)CC1 | 3.32 µM | IC50 [2]: 0.387 µM; IC50 (MOLM-13): 12.1 µM; IC50 (MDA-MB-231): > 20 µM; IC50 (MM1.S): 5.32 µM; Activity (MV4-11 [3]): inactive; viability at 0.3 µM (MV4-11 [4]): 86.2%; Activity (MV4-11 [5]): 9.59%; Activity (MV4-11 [6]): 3.75%; Activity (MV4-11 [7]): 0.49%; inhibition in vivo at 20 mg/kg (MV4-11 [8]): 28%; Activity [9]: Non-toxic |
| O=C1CCC(N2Cc3c(NC(=O)CCCCCCN4CCC(C(=O)Nc5ncc(-c6ccccc6)s5)CC4)cccc3C2=O)C(=O)N1 (stereo not drawn) | 4.89 µM |  |
| O=C1CCC(N2Cc3c(NC(=O)CCCCCCCCC(=O)N4CCC(C(=O)Nc5ncc(-c6ccccc6)s5)CC4)cccc3C2=O)C(=O)N1 (stereo not drawn) | 5.21 µM |  |
| CN1C(=O)CCC(N2Cc3c(NC(=O)CCCCCC(=O)N4CCC(C(=O)Nc5ncc(-c6ccccc6)s5)CC4)cccc3C2=O)C1=O (stereo not drawn) | > 10 µM |  |
| O=C1CCC(N2Cc3c(NC(=O)CCc4ccc(OCCCCC(=O)N5CCC(C(=O)Nc6ncc(-c7ccccc7)s6)CC5)cc4)cccc3C2=O)C(=O)N1 (stereo not drawn) | > 10 µM |  |
| O=C1CCC(N2Cc3c(NC(=O)CCCCOc4ccc(CC(=O)N5CCC(C(=O)Nc6ncc(-c7ccccc7)s6)CC5)cc4)cccc3C2=O)C(=O)N1 (stereo not drawn) | 1.44 µM | IC50 (MOLM-13): 9.52 µM; IC50 (MDA-MB-231): > 20 µM; IC50 (MM1.S): 2.43 µM |
| O=C1CCC(N2Cc3c(NC(=O)CCCCCCCN4CCC(C(=O)Nc5ncc(-c6ccccc6)s5)CC4)cccc3C2=O)C(=O)N1 (stereo not drawn) | > 10 µM |  |
| O=C1CCC(N2Cc3c(NC(=O)CCCCCN4CCC(C(=O)Nc5ncc(-c6ccccc6)s5)CC4)cccc3C2=O)C(=O)N1 (stereo not drawn) | 0.9 µM | IC50 (MOLM-13): 11.5 µM; IC50 (MDA-MB-231): 12.2 µM; IC50 (MM1.S): 1.22 µM |
| O=C1CCC(N2Cc3c(NC(=O)CCCOc4ccc(CC(=O)N5CCC(C(=O)Nc6ncc(-c7ccccc7)s6)CC5)cc4)cccc3C2=O)C(=O)N1 (stereo not drawn) | 6.38 µM |  |
| O=C(CC(=O)N1CCC(C(=O)Nc2ncc(-c3ccccc3)s2)CC1)NCCCCCCCC(=O)Nc1cccc2c1CN(C1CCC(=O)NC1=O)C2=O (stereo not drawn) | 5.41 µM |  |
| O=C(CCC(=O)N1CCC(C(=O)Nc2ncc(-c3ccccc3)s2)CC1)NCCCCCC(=O)Nc1cccc2c1CN(C1CCC(=O)NC1=O)C2=O (stereo not drawn) | > 10 µM |  |

More lines, main results first:

| IC50 (MV4-11 [1]) | Structure (SMILES) | further results |
| --- | --- | --- |
| 4.59 µM | O=C1CCC(N2Cc3c(NC(=O)CCCCCCCC(=O)N4CCC(C(=O)Nc5ncc(-c6ccccc6)s5)CC4)cccc3C2=O)C(=O)N1 (stereo not drawn) |  |
| 2.17 µM | O=C1CCC(N2Cc3c(NC(=O)CCCCC(=O)N4CCC(C(=O)Nc5ncc(-c6ccccc6)s5)CC4)cccc3C2=O)C(=O)N1 (stereo not drawn) |  |
| 8.98 µM | O=C1CCC(N2C(=O)c3cc(F)c(N4CCN(C(=O)CCCC(=O)N5CCC(C(=O)Nc6ncc(-c7ccccc7)s6)CC5)CC4)cc3C2=O)C(=O)N1 (stereo not drawn) | IC50 [2]: 0.64 µM |
| 2.28 µM | O=C1CCC(N2C(=O)c3cc(F)c(N4CCN(C(=O)CCCCCCC(=O)N5CCC(C(=O)Nc6ncc(-c7ccccc7)s6)CC5)CC4)cc3C2=O)C(=O)N1 (stereo not drawn) | IC50 (MOLM-13): 10 µM; IC50 (MDA-MB-231): > 20 µM; IC50 (MM1.S): 3.84 µM |
| > 10 µM | O=C1CCC(N2C(=O)c3cc(F)c(N4CCN(C(=O)CCCCC(=O)N5CCC(C(=O)Nc6ncc(-c7ccccc7)s6)CC5)CC4)cc3C2=O)C(=O)N1 (stereo not drawn) |  |
| 4.08 µM | O=C1CCC(N2C(=O)c3cc(F)c(N4CCN(C(=O)CCCCCC(=O)N5CCC(C(=O)Nc6ncc(-c7ccccc7)s6)CC5)CC4)cc3C2=O)C(=O)N1 (stereo not drawn) |  |
| 8.47 µM | O=C1CCC(N2C(=O)c3cc(F)c(N4CCN(C(=O)CCCN5CCC(C(=O)Nc6ncc(-c7ccccc7)s6)CC5)CC4)cc3C2=O)C(=O)N1 (stereo not drawn) |  |
| 5.13 µM | O=C1CCC(N2C(=O)c3cc(F)c(N4CCN(C(=O)CCC(=O)N5CCC(C(=O)Nc6ncc(-c7ccccc7)s6)CC5)CC4)cc3C2=O)C(=O)N1 (stereo not drawn) |  |
| > 10 µM | O=C1CCC(N2C(=O)c3cc(F)c(N4CCN(C(=O)CC(=O)N5CCC(C(=O)Nc6ncc(-c7ccccc7)s6)CC5)CC4)cc3C2=O)C(=O)N1 (stereo not drawn) |  |
| 0.21 µM | O=C1CCC(N2Cc3c(NC(=O)CCCCCCC(=O)N4CCC(C(=O)Nc5ncc(-c6ccccc6)s5)CC4)cccc3C2=O)C(=O)N1 (stereo not drawn) | IC50 (MOLM-13): 1.95 µM; IC50 (MDA-MB-231): 5.74 µM; IC50 (MM1.S): 0.41 µM |
| 7.9 µM | O=C1CCC(N2C(=O)c3cc(F)c(N4CCN(C(=O)CCCCN5CCC(C(=O)Nc6ncc(-c7ccccc7)s6)CC5)CC4)cc3C2=O)C(=O)N1 (stereo not drawn) |  |
| > 10 µM | O=C1CCC(N2C(=O)c3cc(F)c(N4CCN(C(=O)CCCCCN5CCC(C(=O)Nc6ncc(-c7ccccc7)s6)CC5)CC4)cc3C2=O)C(=O)N1 (stereo not drawn) |  |
| 7.1 µM | O=C(CC(=O)N1CCC(C(=O)Nc2ncc(-c3ccccc3)s2)CC1)NCCCCCC(=O)Nc1cccc2c1CN(C1CCC(=O)NC1=O)C2=O (stereo not drawn) |  |
| > 10 µM | O=C(CC(=O)N1CCC(C(=O)Nc2ncc(-c3ccccc3)s2)CC1)NCCOCC(=O)Nc1cccc2c1CN(C1CCC(=O)NC1=O)C2=O (stereo not drawn) |  |
| 6.17 µM | O=C(CC(=O)N1CCC(C(=O)Nc2ncc(-c3ccccc3)s2)CC1)NCCCCC(=O)Nc1cccc2c1CN(C1CCC(=O)NC1=O)C2=O (stereo not drawn) |  |
